Earlier results on one molecule are cited in patent US20050227998A1, “Compositions and methods of decreasing nicotine withdrawal” (priority 2004, published 2005).

This data set concerns monkeys.

On to `CN1[C@@H]2C[C@@H](OC(=O)[C@H](CO)c3ccccc3)C[C@H]1[C@@H]1O[C@@H]12` [scopolamine, Scopolamine], for which the smoking patterns result is listed as “decreased”.
